Experiment: relative permittivity at zero frequency (dimensionless); xn = mol fraction of the nth substance listed
Conditions: 100 kPa, Liquid, Dielectrometer

CC(C)(C)O [2-methylpropan-2-ol] + CCC(C)O
relative permittivity at zero frequency
Conditions	288.15 K	293.15 K	298.15 K	303.15 K	308.15 K
x1 = 0.0511	18.35	17.39	16.47	15.62	14.8
x1 = 0.1003	18.24	17.25	16.35	15.46	14.64
x1 = 0.1512	18.11	17.13	16.22	15.31	14.47
x1 = 0.199	17.97	16.98	16.06	15.15	14.28
x1 = 0.2498	17.85	16.83	15.92	14.98	14.1
x1 = 0.3007	17.71	16.67	15.77	14.79	13.92
x1 = 0.35	17.55	16.54	15.6	14.62	13.75
x1 = 0.3997	17.42	16.36	15.44	14.44	13.54
x1 = 0.4502	17.25	16.19	15.27	14.25	13.34
x1 = 0.5011	17.09	16	15.09	14.05	13.14
x1 = 0.5497	16.89	15.83	14.9	13.84	12.92
x1 = 0.6007	16.7	15.64	14.72	13.62	12.7
x1 = 0.6511	16.5	15.42	14.5	13.41	12.47
x1 = 0.701	16.28	15.17	14.26	13.17	12.23
x1 = 0.7497	16.03	14.93	14.03	12.89	11.96
x1 = 0.8005	15.76	14.68	13.78	12.63	11.68
x1 = 0.8488	15.49	14.39	13.5	12.32	11.39
x1 = 0.9003	15.19	14.07	13.18	12.01	11.07
x1 = 0.9496	14.84	13.72	12.84	11.68	10.74
x1 = 1	14.49	13.38	12.49	11.34	10.4

CCC(C)O (stereo not given) [butan-2-ol] + CCCCO
relative permittivity at zero frequency
Conditions	288.15 K	293.15 K	298.15 K	303.15 K	308.15 K
x1 = 0.0501	18.97	18.24	17.54	16.86	16.21
x1 = 0.0987	18.93	18.2	17.49	16.81	16.16
x1 = 0.1506	18.89	18.15	17.44	16.76	16.1
x1 = 0.1998	18.86	18.11	17.4	16.71	16.05
x1 = 0.2503	18.82	18.07	17.35	16.65	15.99
x1 = 0.2986	18.79	18.03	17.3	16.6	15.93
x1 = 0.3512	18.75	17.99	17.25	16.54	15.87
x1 = 0.3977	18.72	17.95	17.2	16.49	15.81
x1 = 0.4497	18.69	17.91	17.16	16.43	15.74
x1 = 0.4998	18.67	17.87	17.11	16.37	15.68
x1 = 0.5501	18.64	17.83	17.06	16.32	15.61
x1 = 0.6011	18.61	17.79	17.01	16.26	15.54
x1 = 0.649	18.59	17.76	16.96	16.2	15.47
x1 = 0.7005	18.57	17.72	16.91	16.14	15.4
x1 = 0.7511	18.55	17.68	16.86	16.07	15.32
x1 = 0.7986	18.53	17.65	16.81	16.01	15.25
x1 = 0.8498	18.51	17.62	16.76	15.95	15.17
x1 = 0.9006	18.5	17.58	16.71	15.88	15.09
x1 = 0.9487	18.48	17.55	16.66	15.82	15.01
x1 = 1	18.47	17.51	16.6	15.75	14.94

Reference: the NIST ThermoML archive (doi:10.1021/je3007666)
